Results on six compounds are retold here after patent publication US7420029B2, “Tissue-specific transporter inhibitor” (Japan Science and Technology Agency, priority 2001, dated 2008).

The term AUC(0-inf) denotes the area under the concentration-time curve extrapolated to infinity. Lower therefore signals low exposure. As usually defined, the Tmax is the time at which the peak concentration occurs.

In data set [1] the target is T1, hPEPT 1 (Homo sapiens, UniProt P46059).
T1 construct: expressed in transfected cells; mock = HeLa-pcDNA 3
T1 sequence (P46059 1-708): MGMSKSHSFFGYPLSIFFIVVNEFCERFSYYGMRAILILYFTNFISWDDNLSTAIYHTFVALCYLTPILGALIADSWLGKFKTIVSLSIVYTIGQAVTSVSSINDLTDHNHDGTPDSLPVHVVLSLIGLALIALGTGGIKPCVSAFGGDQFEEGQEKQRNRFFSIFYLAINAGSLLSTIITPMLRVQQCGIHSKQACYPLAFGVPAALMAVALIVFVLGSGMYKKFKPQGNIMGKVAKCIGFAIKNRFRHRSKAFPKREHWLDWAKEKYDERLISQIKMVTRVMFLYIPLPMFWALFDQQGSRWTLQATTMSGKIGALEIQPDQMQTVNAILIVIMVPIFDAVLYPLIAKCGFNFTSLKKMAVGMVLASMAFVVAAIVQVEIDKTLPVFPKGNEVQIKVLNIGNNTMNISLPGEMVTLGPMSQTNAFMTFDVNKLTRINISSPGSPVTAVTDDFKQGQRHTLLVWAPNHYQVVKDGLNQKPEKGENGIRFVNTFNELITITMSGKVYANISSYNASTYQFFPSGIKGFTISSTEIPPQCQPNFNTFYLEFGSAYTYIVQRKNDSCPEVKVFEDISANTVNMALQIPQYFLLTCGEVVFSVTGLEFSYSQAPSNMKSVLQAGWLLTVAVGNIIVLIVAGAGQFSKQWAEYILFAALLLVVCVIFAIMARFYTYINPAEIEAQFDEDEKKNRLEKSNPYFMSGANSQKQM
Nature of the data set: Inhibitory effect on [^3H] Gly-Sar uptake by HeLa-hPEPT 1 cells. The format is cell-based. The following applies: for [^3H] Gly-Sar uptake % of control: HeLa-hPEPT 1, pH 6.0, 2 min. Here is the method: In order to examine the recognition property of VK-PRX and its component, VK-α-CD, both obtained in Example 4, to PEPT 1, the inihibitory effect to the uptake of [^3H] Gly-Sar by using HeLa cells stably expressing hPEPT 1 (HeLa-hPEPT 1) was examined. HeLa-hPEPT 1 cells or HeLa-pcDNA (Mock) cells prepared by the method described previously (Int. J. Cancer. 88, 274-80, 2000) were placed in a multidish (Nunc) at 10^6 cells/well and cultured in an incubator (Hirasawa) at 37° C. and 5% CO2 for four days. As a broth, DMEM (Dulbecco's modified Eagle's medium; Gibco Laboratories) containing 10% FCS (Gibco Laboratories), 2 mM L-glutamine, and 1 mg/ml G418 was used. After culture, the broth was aspirated and each cell was washed three times with 1 ml of Hanks' balanced salt solution (HBSS; 0.952 mM CaCl2, 5.36 mM KCl, 0.441 mM KH2PO4, 0.812 mM MgSO4, 136.7 mM NaCl, 0.385 mM Na2HPO4, 25 mM D-glucose, 10 mM MES: pH 6.0) at 37° C., then preincubated for five minutes. Subsequently, 250 μl of HBSS containing each inhibitor with the concentration shown in FIG. 4 and Table 8, and [^3H(G)] Gly-Sar (476 nM) was added and an uptake reaction was initiated at 37° C. The inhibitors, VK-PRX (No. 1˜6), were prepared such that the highest concentration of dissolved VK-PRX would be 500 μM or lower, and were filtrated through a filter, and then used for the uptake reaction. At the beginning of the reaction, the reaction solution was taken from each dish and placed into […]. Then, 4 ml of liquid scintillation cocktail (Clear-sol I, Nacalai tesque) was added to the solution, and radioactivity in the reaction solution was measured by a liquid scintillation counter (LSC-5100, Aloka Co. Ltd.). Two minutes after the beginning of the reaction, the reaction solution in each dish was removed by aspiration, and the reaction was stopped by washing the cells three times with 1 ml of ice-cooled HBSS (HEPES: pH 7.4). Subsequently, 250 μl of 5 N NaOH was added to each dish to solubilize the cells (for two hours or longer), and 250 μl of 5 N HCl was added for neutralization, then the whole amount was poured into mini vial, and 4 ml of liquid scintillation cocktail (Clear-sol I, Nacalai tesque) was added, and radioactivity taken in the cells was measured.
Further, in order to measure the amount of cellular proteins after the culture mentioned above, the cultured cells were solubilized, Bio-Rad Protein Assay reagent (Bio-Rad Co.) was added, and the absorbance at 595 nm was measured. As a standard, BSA (bovine serum albumin) was used. Based on the results, the uptake amount of [^3H] Gly-Sar into the cells [cell/medium ratio (μl/mg·protein)] was calculated according to the formula (3). The value of the control in FIG. 4 is the result of the uptake reaction conducted in the absence of the inhibitor. […] It has been shown that the uptake of [^3H]

Data set [2] deals with T2, PEPT 1 (Rattus norvegicus, UniProt P51574).
T2 sequence (P51574 1-710): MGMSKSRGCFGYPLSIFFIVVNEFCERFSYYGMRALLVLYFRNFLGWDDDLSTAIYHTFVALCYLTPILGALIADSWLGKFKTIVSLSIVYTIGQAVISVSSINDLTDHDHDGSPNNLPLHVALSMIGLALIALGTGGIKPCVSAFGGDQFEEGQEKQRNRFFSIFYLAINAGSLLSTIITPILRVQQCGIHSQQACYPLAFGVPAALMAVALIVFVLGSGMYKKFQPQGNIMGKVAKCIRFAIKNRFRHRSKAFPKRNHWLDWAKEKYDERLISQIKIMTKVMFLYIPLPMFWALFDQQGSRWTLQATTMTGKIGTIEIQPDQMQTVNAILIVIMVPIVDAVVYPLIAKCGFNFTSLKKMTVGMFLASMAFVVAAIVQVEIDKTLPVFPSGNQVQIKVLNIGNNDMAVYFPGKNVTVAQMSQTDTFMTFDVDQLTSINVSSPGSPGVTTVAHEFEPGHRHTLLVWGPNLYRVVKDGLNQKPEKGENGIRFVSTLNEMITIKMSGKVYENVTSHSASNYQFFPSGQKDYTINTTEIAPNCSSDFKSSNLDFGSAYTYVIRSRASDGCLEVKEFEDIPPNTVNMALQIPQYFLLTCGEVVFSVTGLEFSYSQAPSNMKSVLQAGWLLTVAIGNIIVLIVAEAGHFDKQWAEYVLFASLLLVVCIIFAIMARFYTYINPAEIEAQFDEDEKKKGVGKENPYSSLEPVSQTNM
The following applies: in vivo, po.
Procedure: (§1) At the column temperature 35° C., 7% of acetonitrile (containing 0.1 M of acetic acid buffer (pH 3.0) and 0.01 M of 1-pentasulfonic acid sodium) was used as a mobile phase for separating elution at flow rate 0.9 ml/min. The detection was conducted at wavelength 240 nm, and CDX concentration in the plasma was determined.
(§2) In the formula, C, F, D, ka, ke, Vd and t represent CDX concentration in the plasma, absorptance, dosage, absorption rate constant, elimination rate constant, distribution volume, and time interval between the drug administration and blood collection, respectively.
(§3) In the formula, CL represents total clearance, Dose represents the dose of the drug, respectively.
(§4) With regard to 2.5 mg/kg CDX and 45 mg/kg CEX (▾), CEX was orally administered to the rats 30 minutes before the administration of CDX. Each pharmacokinetic parameter of the above-mentioned rats was calculated based on the change in the CDX concentration in the blood, with the formula (4), the formula (6), the formula (7), and the formula (8), and evaluated. Values shown in the figure and the table are the mean±S.E.M. of three to four independent experiments.
(§5) Then each pharmacokinetic parameter was calculated based on the change in the CDX concentration in the blood, with the formula (4), the formula (6), the formula (7), and the formula (8), and evaluated. […] Values shown in the figures are the mean±S.E.M. of two to four independent experiments, and values shown in the tables are the mean±S.E.M. of three independent experiments.
(§6) Values shown in the figure and the table are the mean±S.E.M. of two to four independent experiments.
(§7) VK-PRK was orally administered 30 minutes before CDX administration. […] Values shown in FIG. 10, FIG. 11 and Table 14 are the mean±S.E.M. of four independent experiments, and values shown in Table 13 are the mean±S.E.M. of three independent experiments.
(§8) Values shown in the figure are the mean±S.E.M. of three independent experiments, and values shown in the table are the mean±S.E.M. of four independent experiments.

For data set [3], the target named is T2, PEPT 1. Kind of data set: in vivo. The note with it: male, Sprague-Dawley, po; for Tmax: Tmax of CDX.
Procedure: as §1, §2, §3, §4, §5, §6, §7, §8
Data set [4] in a line: CDX plasma pharmacokinetics after instant intravenous injection to rats with or without oral VK-PRX. The note with it: male, Sprague-Dawley, rat.
Procedure: as §1
In the formula, α, β and V1 represent gradient of distribution phase, gradient of elimination phase, and distribution volume of central compartment, respectively.
as §3
Data set [5] has as its target T1, hPEPT 1. Kind of data set: Effect of preincubation with inhibitor on [^3H] Gly-Sar uptake by HeLa-hPEPT 1 cells. The following applies: FIG. 5. The format is cell-based. The procedure:
Gly-Sar uptake was examined by using HeLa cells stably expressing hPEPT 1 (HeLa-hPEPT 1). In the presence or absence of each inhibitor with concentrations shown in FIG. 5, preincubation was conducted for 30 minutes (open columns), and after the reaction solution was removed, the inhibitory effect on [^3H] Gly-Sar uptake was measured in a manner similar to that of Example 5 except that the uptake reaction was conducted in HBSS containing the same concentration of the inhibitor and [^3H] Gly-Sar (476 nM) (closed columns). In the figure, “Mock” indicates the uptake by HeLa-pcDNA 3 cells. […] Gly-Sar.

On to `CC1=C(C(=O)O)N2C(=O)[C@@H](NC(=O)[C@H](N)c3ccc(O)cc3)[C@H]2SC1` [Cefadroxil, cefadroxil], for which the “[^3H] Gly-Sar uptake % of control” value at hPEPT 1 [1] (inhibitor 10 mM) is reported as 27.69 ± 1.44 % of control. For the same compound, the “dose dependence of AUC0−∞ and Cmax of CDX (in words)” value on PEPT 1 [2] is “saturation phenomenon”. Further, on PEPT 1 [2] (male, Sprague-Dawley, 5 mg/kg), the “AUC0-∞ of CDX” value was found to be 272 ± 9.27 µg·min/mL and the “ke (elimination rate constant) of CDX” value was determined as 0.54 ± 0.06 h⁻¹. On PEPT 1 [3] (5 mg/kg, AUC0-∞ of CDX), this compound had an AUC(0-inf) of 2700 ng·h/mL. For the same compound, on PEPT 1 [3] (5 mg/kg), the Tmax came to 1.09 ± 0.08 h. The compound further gave a k el on PEPT 1 [3] (5 mg/kg, ke (elimination rate constant) of CDX) of 8.61e-05 s⁻¹. The Tmax at PEPT 1 [3] ([…]) is 0.95 h. In data set [4], this compound showed a Vd of 0.162 ± 0.00899 L and a clearance of 11 ± 0.41 mL/min.

As to `CC1=C(C(=O)O)N2C(=O)C(NC(=O)C(N)c3ccccc3)C2SC1` (centres unmarked) [Cephalexin, cephalexin], at hPEPT 1 [1] (inhibitor 10 mM), the “[^3H] Gly-Sar uptake % of control” value was 70.12 ± 1.45 % of control.

For the compound `NCC(=O)O` [Gly], the “[^3H] Gly-Sar uptake % of control” value at hPEPT 1 [1] (inhibitor 10 mM) is 97.71 ± 7.10 % of control.

With `CC(C)[C@H](N)C(=O)N[C@@H](CCCCN)C(=O)O` [Val-Lys, valyl-lysine], the “[^3H] Gly-Sar uptake % of control” value on hPEPT 1 [1] (inhibitor 3 mM) is listed as 21.13 ± 1.80 % of control.

For the compound `OC[C@H]1O[C@@H]2O[C@H]3[C@H](O)[C@@H](O)[C@@H](O[C@H]4[C@H](O)[C@@H](O)[C@@H](O[C@H]5[C@H](O)[C@@H](O)[C@@H](O[C@H]6[C@H](O)[C@@H](O)[C@@H](O[C@H]7[C@H](O)[C@@H](O)[C@@H](O[C@H]1[C@H](O)[C@H]2O)O[C@@H]7CO)O[C@@H]6CO)O[C@@H]5CO)O[C@@H]4CO)O[C@@H]3CO` [α-CD, α-cyclodextrin], the “Inhibitory effect on [^3H] Gly-Sar uptake (in words)” value at hPEPT 1 [1] (HeLa-hPEPT 1, FIG. 4 and Table 8) is “significant inhibitory effect was not observed”; at hPEPT 1 [5] it was “no inhibitory effect”. Moreover, the “[^3H] Gly-Sar uptake % of control” value at hPEPT 1 [1] (inhibitor 3 mM) is 125.87 ± 23.34 % of control.

As for Gly-Sar, the “[^3H] Gly-Sar uptake % of control” value on hPEPT 1 [1] (inhibitor 10 mM) is listed as 12.93 ± 2.45 % of control.
